This is an account of results in patent US11584765B2 (priority 2017, dated 2023).

Counter-ions that a name gives are not always drawn.

The subject of the test is C57BL/6 mice. Briefly: animal or person. Type of test: in vivo. As to conditions: Mus musculus, sc, 0.5 h, s.c. administration, 30 min, 55° C. water, read-out: ED50 (mg/kg) at 30 min on C57BL/6 mice in Warm-water Tail-flick Test. (In general: In hot-plate and tail-flick tests a longer latency is read as antinociception.)
Take `CCOC[C@@]1(CCc2nc(C)cs2)CCN(C(C)(C)c2ccc(C)nc2)C1.Cl` [Compound 449, (S)-2-(2-(3-(ethoxymethyl)-1-(2-(6-methylpyridin-3-yl)propan-2-yl)pyrrolidin-3-yl)ethyl)-4-methylthiazole HCl]: the ED50 was less than 10 mg/kg.

In the case of `CCOC[C@@]1(CCc2nc(C)c(C)s2)CCN(C(C)(C)c2ccc(C)nc2)C1.Cl` [Compound 450, (S)-2-(2-(3-(ethoxymethyl)-1-(2-(6-methylpyridin-3-yl)propan-2-yl)pyrrolidin-3-yl)ethyl)-4,5-dimethylthiazole HCl], the ED50 is less than 10 mg/kg.

For the molecule `CCOCC1(CCc2cccs2)CCCN1Cc1cccnc1.Cl` (stereo not shown) [Compound 451, 3-((2-(ethoxymethyl)-2-(2-(thiophen-2-yl)ethyl)pyrrolidin-1-yl)methyl)pyridine HCl], the ED50 is less than 10 mg/kg.

Turning to `CCOC[C@@]1(CCc2cccs2)CCN(Cc2ccc(OC)nc2)C1.Cl` [Compound 452, (S)-5-((3-(ethoxymethyl)-3-(2-(thiophen-2-yl)ethyl)pyrrolidin-1-yl)methyl)-2-methoxypyridine HCl], the ED50 was less than 10 mg/kg.

On to `CCOC[C@@]1(CCc2cccs2)CCN(C(C)(C)c2ccc(OC)nc2)C1.Cl` [Compound 453, (S)-5-(2-(3-(ethoxymethyl)-3-(2-(thiophen-2-yl)ethyl)pyrrolidin-1-yl)propan-2-yl)-2-methoxypyridine HCl], for which the ED50 was less than 10 mg/kg.

`CCOC[C@@]1(CCc2cccs2)CCN(Cc2ccc(=O)[nH]c2)C1.Cl` [Compound 454, (S)-5-((3-(ethoxymethyl)-3-(2-(thiophen-2-yl)ethyl)pyrrolidin-1-yl)methyl)pyridin-2(1H)-one HCl]: the ED50 was more than 10 mg/kg.

As to `CCOCC1(CCC2CCCS2)CCCN1Cc1cccnc1.Cl` (stereo not shown) [Compound 455, 3-((2-(ethoxymethyl)-2-(2-(tetrahydrothiophen-2-yl)ethyl)pyrrolidin-1-yl)methyl)pyridine HCl], the ED50 is more than 10 mg/kg.

For `CCOC[C@@]1(CCc2nc3ncncc3[nH]2)CCN(C(C)(C)c2ccc(C)nc2)C1` [Compound 456, (S)-8-(2-(3-(ethoxymethyl)-1-(2-(6-methylpyridin-3-yl)propan-2-yl)pyrrolidin-3-yl)ethyl)-7H-purine citrate], the ED50 is less than 10 mg/kg.

As for `CCOC[C@@]1(CCC2CC2)CCN(C(C)(C)c2ccc(C)nc2)C1` [Compound 457, (S)-5-(2-(3-(2-cyclopropylethyl)-3-(ethoxy-methyl)pyrrolidin-1-yl)propan-2-yl)-2-methylpyridine citrate], the ED50 was less than 10 mg/kg.

As to `CCOC[C@@]1(COCc2ccccc2)CCN(C(C)(C)c2ccc(C)nc2)C1.Cl` [Compound 458, (R)-5-(2-(3-((benzyloxy)methyl)-3-(ethoxy-methyl)pyrrolidin-1-yl)propan-2-yl)-2-methylpyridine HCl], the ED50 is less than 10 mg/kg.

Regarding `CCCCC[C@]1(COCC)CCN(C(C)(C)c2ccc(C)nc2)C1.Cl` [Compound 459, (S)-5-(2-(3-(ethoxymethyl)-3-pentylpyrrolidin-1-yl)propan-2-yl)-2-methylpyridine HCl], the ED50 was less than 10 mg/kg.

Consider `CCOCC1CCN(C(C)(C)c2ccc(C)nc2)C1.Cl` (stereo not shown) [Compound 460, 5-(2-(3-(ethoxy-methyl)pyrrolidin-1-yl)propan-2-yl)-2-methylpyridine HCl], for which the ED50 was less than 10 mg/kg.

Consider `CCOC[C@@]1(CCc2nc3ncncc3n2Cc2ccc(OC)cc2)CCN(C(C)(C)c2ccc(C)nc2)C1` [Compound 461, (S)-8-(2-(3-(ethoxymethyl)-1-(2-(6-methylpyridin-3-yl)propan-2-yl)pyrrolidin-3-yl)ethyl)-7-(4-methoxybenzyl)-7H-purine citrate], for which the ED50 is less than 10 mg/kg.

Consider `CCOC[C@@]1(CCc2sccc2C)CCN(Cc2cccnc2)C1` [Compound 462, (S)-3-((3-(ethoxymethyl)-3-(2-(3-methylthiophen-2-yl)ethyl)pyrrolidin-1-yl)methyl)pyridine], for which the ED50 is less than 10 mg/kg.

As to `CCOC[C@@]1(CCc2ccc(C)s2)CCN(Cc2cccnc2)C1` [Compound 463, (S)-3-((3-(ethoxymethyl)-3-(2-(5-methylthiophen-2-yl)ethyl)pyrrolidin-1-yl)methyl)pyridine], the ED50 is less than 10 mg/kg.

For the molecule `CCOC[C@@]1(CCc2ccsc2C)CCN(Cc2cccnc2)C1` [Compound 464, (S)-3-((3-(ethoxymethyl)-3-(2-(2-methylthiophen-3-yl)ethyl)pyrrolidin-1-yl)methyl)pyridine], the ED50 is less than 10 mg/kg.

Consider `CCOC[C@@]1(CCC2CC2)CCN(C2(c3ccc(C)nc3)CC2)C1` [Compound 466, (S)-5-(1-(3-(2-cyclopropylethyl)-3-(ethoxy-methyl)pyrrolidin-1-yl)cyclopropyl)-2-methylpyridine], for which the ED50 is less than 10 mg/kg.

For `Cc1ccc(CN2[C@@H](C)CC(CCc3ccc(F)cn3)(c3ccccn3)C[C@@H]2C)cn1` (stereo partly drawn) [Compound 467, 2-(2-((2S,6S)-2,6-dimethyl-1-((6-methylpyridin-3-yl)methyl)-4-(pyridin-2-yl)piperidin-4-yl)ethyl)-5-fluoropyridine], the ED50 was more than 10 mg/kg.

As for `Cc1ccc(C(C)(C)N2CC[C@](CCc3cccs3)([C@@H]3CCC(C)(C)O3)C2)cn1` [Compound 468, 5-(2-((S)-3-((S)-5,5-dimethyltetrahydro-furan-2-yl)-3-(2-(thiophen-2-yl)ethyl)pyrrolidin-1-yl)propan-2-yl)-2-methylpyridine], the ED50 was less than 10 mg/kg.
